Results reported in article PMC6631993, “Investigation of the Binding Affinity of a Broad Array of L-Fucosides with Six Fucose-Specific Lectins of Bacterial and Fungal Origin” (Molecules, 2019).
Where two headings read alike, the source gives them in different places.

What was measured:
[1] = target: T1, AOL (Aspergillus oryzae, UniProt Q2UNX8); assay: hemagglutination inhibition, microscope detection; type: biochemical; details: PBS, room temperature, lectin 0.05 mg/mL
T1 construct: gene fleA; purchased freeze-dried (TCI); dimer
T1 sequence (Q2UNX8 1-311): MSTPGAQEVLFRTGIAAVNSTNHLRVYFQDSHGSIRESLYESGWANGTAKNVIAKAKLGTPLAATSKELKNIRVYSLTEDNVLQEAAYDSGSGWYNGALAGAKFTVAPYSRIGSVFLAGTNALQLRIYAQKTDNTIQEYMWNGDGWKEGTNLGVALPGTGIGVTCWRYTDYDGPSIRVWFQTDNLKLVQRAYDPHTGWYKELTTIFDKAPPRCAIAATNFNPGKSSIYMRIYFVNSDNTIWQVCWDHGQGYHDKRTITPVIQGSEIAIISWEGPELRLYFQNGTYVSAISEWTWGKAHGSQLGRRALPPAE
Text: hemagglutination inhibition, microscope detection on AOL

[2] = target: T2, AAL (Aleuria aurantia, UniProt P18891); assay: hemagglutination inhibition, microscope detection; type: biochemical; details: PBS, room temperature, lectin 0.05 mg/mL
T2 construct: purchased freeze-dried (Vector Laboratories); dimer
T2 sequence (P18891 2-313): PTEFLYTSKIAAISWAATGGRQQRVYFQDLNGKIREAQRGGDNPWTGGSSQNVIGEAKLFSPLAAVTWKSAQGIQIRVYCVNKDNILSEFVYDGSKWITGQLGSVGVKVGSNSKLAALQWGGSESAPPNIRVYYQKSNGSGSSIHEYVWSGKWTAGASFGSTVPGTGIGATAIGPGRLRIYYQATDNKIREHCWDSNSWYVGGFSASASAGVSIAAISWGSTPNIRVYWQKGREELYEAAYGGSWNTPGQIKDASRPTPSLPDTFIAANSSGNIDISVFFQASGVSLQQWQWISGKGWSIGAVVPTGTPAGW
Text: hemagglutination inhibition, microscope detection on AAL

[3] = target: T3, BC2L-C (Burkholderia cenocepacia, UniProt B4EH86); assay: hemagglutination inhibition, microscope detection; type: biochemical; details: human 0+ papain-treated red blood cells, 20 mM Tris/HCl, 150 mM NaCl, 5 mM CaCl2, pH 7.5, room temperature, lectin 0.1 mg/mL, semi-quantitative
T3 construct: gene BCAM0185; recombinant in E. coli; D-mannose-agarose purified; N-terminal domain (fucose site) is a trimer
T3 sequence (B4EH86 entry or part of it): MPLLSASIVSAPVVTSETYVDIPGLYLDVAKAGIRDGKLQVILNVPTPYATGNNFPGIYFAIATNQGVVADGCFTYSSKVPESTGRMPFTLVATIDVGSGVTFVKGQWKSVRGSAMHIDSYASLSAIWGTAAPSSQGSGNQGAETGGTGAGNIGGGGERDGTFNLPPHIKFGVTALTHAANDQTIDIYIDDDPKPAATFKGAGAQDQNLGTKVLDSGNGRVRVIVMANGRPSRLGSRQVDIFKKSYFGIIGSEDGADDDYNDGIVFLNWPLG
Text: hemagglutination inhibition, microscope detection on BC2L-C

[4] = target: T4, PA-IIL (LecB) (Pseudomonas aeruginosa, UniProt Q9HYN5); assay: hemagglutination inhibition, microscope detection; type: biochemical; details: 20 mM Tris/HCl, 150 mM NaCl, 5 mM CaCl2, pH 7.5, room temperature, lectin 1.25 mg/mL
T4 construct: recombinant in E. coli, D-mannose-agarose purified; homotetramer, two calcium ions per site
T4 sequence (Q9HYN5 entry or part of it): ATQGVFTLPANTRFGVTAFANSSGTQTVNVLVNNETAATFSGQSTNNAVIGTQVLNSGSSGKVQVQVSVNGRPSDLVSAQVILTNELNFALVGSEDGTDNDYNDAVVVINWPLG
Text: hemagglutination inhibition, microscope detection on PA-IIL (LecB)

[5] = target: RSL (Ralstonia pseudosolanacearum, UniProt Q8XXK6); details: PBS, room temperature, lectin 0.05 mg/mL
[6] = target: T5, AFL (Aspergillus fumigatus, UniProt Q4WW81); assay: hemagglutination inhibition, microscope detection; type: biochemical; details: PBS; room temperature; lectin 0.05 mg/mL; valency 1
T5 construct: gene fleA; dimer of six-bladed beta-propellers
T5 sequence (Q4WW81 whole entry): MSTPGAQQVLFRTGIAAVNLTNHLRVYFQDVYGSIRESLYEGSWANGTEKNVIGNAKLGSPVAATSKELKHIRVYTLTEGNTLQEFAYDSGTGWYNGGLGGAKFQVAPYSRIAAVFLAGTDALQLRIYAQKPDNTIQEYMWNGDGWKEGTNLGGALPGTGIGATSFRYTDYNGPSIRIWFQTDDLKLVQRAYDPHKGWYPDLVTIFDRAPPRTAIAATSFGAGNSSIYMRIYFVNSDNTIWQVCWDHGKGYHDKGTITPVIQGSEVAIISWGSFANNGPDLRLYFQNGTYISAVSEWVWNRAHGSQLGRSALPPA
Text: hemagglutination inhibition, microscope detection on AFL

C[C@@H]1O[C@@H](OCc2cn(CCOCCOCCOCCn3cc(COCC(COCc4cn(CCOCCOCCOCCn5cc(CO[C@@H]6O[C@@H](C)[C@@H](O)[C@@H](O)[C@@H]6O)nn5)nn4)(COCc4cn(CCOCCOCCOCCn5cc(CO[C@@H]6O[C@@H](C)[C@@H](O)[C@@H](O)[C@@H]6O)nn5)nn4)COCc4cn(CCOCCOCCOCCn5cc(CO[C@@H]6O[C@@H](C)[C@@H](O)[C@@H](O)[C@@H]6O)nn5)nn4)nn3)nn2)[C@@H](O)[C@H](O)[C@@H]1O [compound 2, Compound 2]
RSL / β^# ([1]; 0+ papain-treated red blood cells, semi-quantitative, valency 4): 256 fold vs L-fucose | AFL / Potency ([2]; valency 4): 128 fold vs L-fucose | BC2L-C / Potency ([3]; valency 4): 16 fold vs L-fucose | AFL / β^# ([4]; valency 4): 32 fold vs L-fucose | RSL / Potency ([5]; valency 4): 1024 fold vs L-fucose

C#CCO[C@@H]1O[C@@H](C)[C@@H](O)[C@@H](O)[C@@H]1O [compound 11, Compound 11]
AFL / Potency ([1]; valency 1): 4 fold vs L-fucose | AFL / Potency [6]: 4 fold vs L-fucose | AFL / Potency ([2]; valency 1): 4 fold vs L-fucose | AFL / Potency ([4]; valency 1): 4 fold vs L-fucose | RSL / Potency ([5]; valency 1): 8 fold vs L-fucose

C[C@@H]1O[C@@H](OCc2cn(CCN=[N+]=[N-])nn2)[C@@H](O)[C@H](O)[C@@H]1O [compound 12, Compound 12]
RSL / Potency ([5]; valency 1): 32 fold vs L-fucose

C[C@@H]1O[C@@H](OCc2cn(CCOCCOCCOCCn3cc(CO[C@@H]4O[C@@H](C)[C@@H](O)[C@@H](O)[C@@H]4O)nn3)nn2)[C@@H](O)[C@H](O)[C@@H]1O [compound 14, Compound 14]
RSL / Potency ([5]; valency 2): 128 fold vs L-fucose

C[C@@H]1O[C@@H](SCCO)[C@@H](O)[C@H](O)[C@@H]1O [compound 21, Compound 21]
RSL / Potency ([1]; valency 1): 4 fold vs L-fucose | AFL / Potency [6]: 2 fold vs L-fucose | AFL / Potency ([2]; valency 1): 2 fold vs L-fucose | RSL / Potency ([3]; valency 4 buffer and lectin concentration, valency 1): 4 fold vs L-fucose | RSL / Potency ([4]; valency 1): 4 fold vs L-fucose | RSL / Potency ([5]; valency 1): 4 fold vs L-fucose

C[C@@H]1O[C@@H](SCCS(=O)(=O)O)[C@@H](O)[C@H](O)[C@@H]1O [compound 22, Compound 22]
RSL / Potency ([3]; valency 4): 4 fold vs L-fucose
